Assay results published in ChEMBL document CHEMBL1130653, “Derivatization of the C12-C13 functional groups of epothilones A, B and C” (Bioorg Med Chem Lett, 1998).
≈ marks a conversion by molar mass, not a printed value.

How the values were obtained:
[1] = Cytotoxicity against L929 fibroblast cell line; Weak cytotoxic activity.; assay type: functional, cell-based, Mus musculus
[2] = Compound was tested for cytotoxicity against L929 fibroblast cell lines in mouse; assay type: functional, cell-based

Row | Structure (SMILES) | IC50 [1] | IC50 [2] [µg/mL]
1 | C/C(=C\c1csc(C)n1)[C@@H]1C[C@H](O)[C@@](C)(O)CCC[C@H](C)[C@H](O)[C@@H](C)C(=O)C(C)(C)C(O)CC(=O)O1 (stereo partly drawn) | Weak cytotoxic activity | 
2 | C/C(=C\c1csc(C)n1)[C@H]1C[C@H]2OCC[C@H](O)C(C)(C)C(=O)[C@H](C)[C@@H](O)[C@@H](C)CCC[C@H]2O1 | Weak cytotoxic activity | 
3 | C/C(=C\c1csc(C)n1)[C@@H]1CC2OC(C)(C)OC2CCC[C@H](C)[C@H](O)[C@@H](C)C(=O)C(C)(C)[C@@H](O)CC(=O)O1 (stereo partly drawn) |  | 0.15 (≈ 0.272 µM)
4 | C/C(=C\c1csc(C)n1)[C@@H]1C[C@@H]2O[C@@H]2CCC[C@H](C)[C@H](O)[C@@H](C)C(=O)C(C)(C)[C@@H](O)CC(=O)O1 [EPOTHILONE A] | Weak cytotoxic activity | 
5 | C/C(=C\c1csc(C)n1)[C@@H]1C[C@H](O)[C@@H](Cl)CCC[C@H](C)[C@H](O)[C@@H](C)C(=O)C(C)(C)[C@@H](O)CC(=O)O1 | Weak cytotoxic activity | 
6 | C/C(=C\c1csc(C)n1)[C@@H]1C[C@H]2OCC[C@H](O)C(C)(C)C(=O)[C@H](C)[C@@H](O)[C@@H](C)CCC[C@H]2O1 | Weak cytotoxic activity | 
7 | C/C(=C\c1csc(C)n1)[C@@H]1C[C@H](O)[C@H](O)CCC[C@H](C)[C@H](O)[C@@H](C)C(=O)C(C)(C)C(O)CC(=O)O1 (stereo partly drawn) | Weak cytotoxic activity | 
8 | C/C(=C\c1csc(C)n1)[C@@H]1C[C@@H](O)[C@H](O)CCC[C@H](C)[C@H](O)[C@@H](C)C(=O)C(C)(C)C(O)CC(=O)O1 (stereo partly drawn) | Weak cytotoxic activity | 
9 | C/C(=C\c1csc(C)n1)[C@@H]1C[C@H](O)[C@@](C)(Cl)CCC[C@H](C)[C@H](O)[C@@H](C)C(=O)C(C)(C)[C@@H](O)CC(=O)O1 | Weak cytotoxic activity | 
10 | C/C(=C\c1csc(C)n1)[C@@H]1C[C@@H](Cl)[C@H](O)CCC[C@H](C)[C@H](O)[C@@H](C)C(=O)C(C)(C)[C@@H](O)CC(=O)O1 | Weak cytotoxic activity | 
11 | C/C(=C\c1csc(C)n1)[C@@H]1C[C@@H]2OC(C)(C)O[C@@H]2CCC[C@H](C)[C@H](O)[C@@H](C)C(=O)C(C)(C)C(O)CC(=O)O1 (stereo partly drawn) | Weak cytotoxic activity | 
12 | C/C(=C\c1csc(C)n1)[C@@H]1C[C@H](O)[C@@]2(C)CCC[C@H](C)[C@H](O)[C@@H](C)C(=O)C(C)(C)C(CC(=O)O1)O2 | Weak cytotoxic activity | 
13 | C/C(=C\c1csc(C)n1)[C@H]1C[C@H]2OC(=O)C[C@H](O)C(C)(C)C(=O)[C@H](C)[C@@H](O)[C@@H](C)CCC[C@H]2O1 | Weak cytotoxic activity | 
14 | C/C(=C\c1csc(C)n1)[C@@H]1C[C@@H]2O[C@]2(C)CCC[C@H](C)[C@H](O)[C@@H](C)C(=O)C(C)(C)[C@@H](O)CC(=O)O1 [PATUPILONE] | Weak cytotoxic activity | 
15 | COC(C[C@H]1OC(=O)C[C@H](O)C(C)(C)C(=O)[C@H](C)[C@@H](O)[C@@H](C)CCC[C@H]1O)C(C)Cc1csc(C)n1 (stereo partly drawn) | Weak cytotoxic activity | 
16 | C/C(=C\c1csc(C)n1)[C@@H]1C[C@H]2OC(=O)C[C@H](O)C(C)(C)C(=O)[C@H](C)[C@@H](O)[C@@H](C)CCC[C@H]2O1 | Weak cytotoxic activity | 
17 | C/C(=C\c1csc(C)n1)[C@H](O)C[C@H]1OC(=O)C[C@H](O)C(C)(C)C(=O)[C@H](C)[C@@H](O)[C@@H](C)CCC[C@@]1(C)O | Weak cytotoxic activity | 
18 | Cc1nc(CC(C)C(O)C[C@H]2OC(=O)C[C@H](O)C(C)(C)C(=O)[C@H](C)[C@@H](O)[C@@H](C)CCC[C@H]2O)cs1 (stereo partly drawn) | Weak cytotoxic activity | 
19 | C/C(=C\c1csc(C)n1)[C@@H]1C/C=C\CCC[C@H](C)[C@H](O)[C@@H](C)C(=O)C(C)(C)[C@@H](O)CC(=O)O1 [EPOTHILONE C] |  | 0.1 (≈ 0.209 µM)
20 | C/C(=C\c1csc(C)n1)[C@@H](O)C[C@H]1OC(=O)C[C@H](O)C(C)(C)C(=O)[C@H](C)[C@@H](O)[C@@H](C)CCC[C@@]1(C)O | Weak cytotoxic activity | 
21 | C/C(=C\c1csc(C)n1)[C@@H]1C[C@@H](O)[C@@H](O)CCC[C@H](C)[C@H](O)[C@@H](C)C(=O)C(C)(C)C(O)CC(=O)O1 (stereo partly drawn) | Weak cytotoxic activity | 
22 | C/C(=C\c1csc(C)n1)[C@@H]1CC(O)C(O)CCC[C@H](C)[C@H](O)[C@@H](C)C(=O)C(C)(C)[C@@H](O)CC(=O)O1 (stereo partly drawn) |  | > 4
23 | C/C(=C\c1csc(C)n1)[C@@H]1CCCCCC[C@H](C)[C@H](O)[C@@H](C)C(=O)C(C)(C)C(O)CC(=O)O1 (stereo partly drawn) | Weak cytotoxic activity | 
